Patent US20250270203A1, “NICOTINIC ACETYLCHOLINE RECEPTOR LIGANDS” (Philip Morris Products S.A., priority 2022, published 2025)
Like-named read-outs stand apart in the source and are kept apart here.

How the values were obtained:
human α7 nAChR = human α7 nAChR (Homo sapiens (Human), UniProt P36544); assay: biochemical; format: binding; conditions: for nAChR subtype preference / selectivity: in words, from Ki at α7, α4β2, α3β4
α3β4 nAChR = α3β4 nAChR (Homo sapiens (Human), UniProt P30926+P32297); assay: nAChR binding affinity, α3β4 subtype; conditions: Table 2
α4β2 nAChR = α4β2 nAChR (Homo sapiens (Human), UniProt P17787+P43681); assay: nAChR binding affinity, α4β2 subtype
[1] = test system: citric acid-induced cough in guinea pigs; assay: Citric acid-induced cough in guinea pigs, dry powder insufflation, nebulisation, oral and intraperitoneal administration (Example 28); format: in vivo, guinea pig
Protocol: The mean concentration of citric acid was 1156.0±111.8 μg/L for both routes.
Regarding oral administration, the duration between compound administration and start of citric acid challenge was 30 minutes. The data was compared to atmospheric air (control).
Regarding intraperitoneal administration, compounds were administered approximately 10-15 mins before the cough challenge (citric acid inhalation challenge). Test compounds were dosed at between 1-30 mg/kg (as described herein for each experiment) while the positive control (codeine) was dosed at 30 mg/kg, in each case using a dosing volume of 10 ml/kg, by a single intraperitoneal injection.

[2] = test system: citric acid-induced cough in guinea pigs; assay: Citric acid-induced cough in guinea pigs, intraperitoneal injection (Example 27)
Protocol: As depicted in FIG. 1B and FIG. 1C, cough induction is conducted by placing guinea pigs into a whole body plethysmograph (WBP) equipped with a Aeroneb™ vibrating mesh nebulizer, and including pressure transducers and detection equipment (EMKA technologies). A primary microphone is supplied (EMKA Technologies) for acoustic confirmation of cough frequency in the form of a digital trace using the EMKA software.
A secondary microphone (T1 True Wireless Earphone, QCY®) also is placed in the chamber and connected to a smartphone via Bluetooth to enable the observers to hear the audible sounds during the test. A bias flow rate of 2 L/min is used to continuously draw either atmospheric air (during the fresh air period) or aerosolized citric acid from the nebulizer into the WBP and expel it out through an exhaust pipe. Chamber pressure in the WBP is set to be between −10 to −30 Pa relative to ambient pressure.
Prior to the citric acid challenge, the guinea pigs are administered (intraperitoneal injection) with vehicle control, positive control or test compound (where applicable) with different dosage (Table 3) and placed individually into the WBP for at least 5 minutes in order to habituate.
The procedure was as follows: Injection→guinea pig in box having citric acid for 10 mins (counting the cough)→box then fill with air for 5 mins (counting the cough)→guinea pig moved to recovery cage.
Appropriate concentration of citric acid is used to generate aerosol and deliver to WBP for 10 minutes with constant recording of pressure measurements. The mean concentration of citric acid was 1283.1±137.2 μg/L. Upon completion of citric acid challenge, the guinea pig is allowed to recover and continue recording of cough counts for another 5 minutes. Subsequently, the guinea pigs are closely monitored in recovery cage for full recovery from the challenge and that no adverse events were present before returning the animals to its home cage. Cough counts (CCnt) are recorded over a period of at least 10 mins, starting from citric acid stimulation and cough incubation period (CIP) are defined as the time it takes to cough for the first time after citric acid stimulation.
The data were analysed using Oneway ANOVA (* p<0.05, ** p<0.01, *** p<0.001, **** p<0.0001) when compared to saline control, and each column represents Mean±SEM.

[3] = Table 1, [125I] α-Bungarotoxin, Cheng-Prusoff, read-out: α7 Ki

Sequence of human α7 nAChR (P36544 23-502 limits assumed): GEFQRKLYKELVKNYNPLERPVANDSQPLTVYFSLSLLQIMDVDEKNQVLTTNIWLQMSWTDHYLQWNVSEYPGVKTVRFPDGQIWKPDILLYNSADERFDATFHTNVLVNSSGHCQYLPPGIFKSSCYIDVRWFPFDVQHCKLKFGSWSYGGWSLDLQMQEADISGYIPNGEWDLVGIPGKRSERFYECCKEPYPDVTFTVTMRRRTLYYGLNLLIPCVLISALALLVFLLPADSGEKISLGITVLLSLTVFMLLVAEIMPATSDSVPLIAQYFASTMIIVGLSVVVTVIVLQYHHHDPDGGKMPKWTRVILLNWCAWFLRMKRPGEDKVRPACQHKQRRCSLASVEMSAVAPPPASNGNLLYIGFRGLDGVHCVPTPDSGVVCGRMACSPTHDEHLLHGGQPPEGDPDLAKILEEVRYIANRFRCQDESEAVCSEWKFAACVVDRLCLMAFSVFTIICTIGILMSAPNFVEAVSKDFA
Sequence of α4β2 nAChR (P43681 29-627): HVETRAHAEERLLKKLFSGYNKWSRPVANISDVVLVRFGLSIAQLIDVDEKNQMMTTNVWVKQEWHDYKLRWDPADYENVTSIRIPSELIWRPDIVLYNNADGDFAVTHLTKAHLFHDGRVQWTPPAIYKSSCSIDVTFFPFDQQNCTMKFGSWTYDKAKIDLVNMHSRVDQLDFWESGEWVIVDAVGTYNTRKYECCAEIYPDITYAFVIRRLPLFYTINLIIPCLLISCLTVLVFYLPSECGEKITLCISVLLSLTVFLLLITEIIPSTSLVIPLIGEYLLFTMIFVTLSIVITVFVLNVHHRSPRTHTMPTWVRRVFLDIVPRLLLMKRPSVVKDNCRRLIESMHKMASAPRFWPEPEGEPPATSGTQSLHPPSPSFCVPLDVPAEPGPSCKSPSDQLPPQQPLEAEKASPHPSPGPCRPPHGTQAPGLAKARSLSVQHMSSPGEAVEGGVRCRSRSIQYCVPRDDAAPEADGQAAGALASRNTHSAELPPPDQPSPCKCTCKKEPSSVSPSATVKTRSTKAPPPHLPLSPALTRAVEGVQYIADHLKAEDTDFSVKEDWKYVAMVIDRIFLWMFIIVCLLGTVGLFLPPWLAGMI
Sequence of α4β2 nAChR (P17787 26-502): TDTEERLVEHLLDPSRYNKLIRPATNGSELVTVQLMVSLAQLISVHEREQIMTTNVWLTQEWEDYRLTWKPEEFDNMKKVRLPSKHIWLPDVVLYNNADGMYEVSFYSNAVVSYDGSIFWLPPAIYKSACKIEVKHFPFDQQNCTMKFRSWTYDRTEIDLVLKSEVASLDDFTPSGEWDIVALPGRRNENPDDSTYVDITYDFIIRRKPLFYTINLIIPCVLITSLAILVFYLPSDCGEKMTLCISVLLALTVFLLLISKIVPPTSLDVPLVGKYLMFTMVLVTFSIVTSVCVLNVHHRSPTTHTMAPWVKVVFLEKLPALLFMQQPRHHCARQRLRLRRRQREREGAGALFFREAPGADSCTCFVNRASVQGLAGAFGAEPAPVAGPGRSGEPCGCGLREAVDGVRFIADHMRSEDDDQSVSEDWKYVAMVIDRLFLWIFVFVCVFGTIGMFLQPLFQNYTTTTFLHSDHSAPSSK
Sequence of α3β4 nAChR (P32297 32-505): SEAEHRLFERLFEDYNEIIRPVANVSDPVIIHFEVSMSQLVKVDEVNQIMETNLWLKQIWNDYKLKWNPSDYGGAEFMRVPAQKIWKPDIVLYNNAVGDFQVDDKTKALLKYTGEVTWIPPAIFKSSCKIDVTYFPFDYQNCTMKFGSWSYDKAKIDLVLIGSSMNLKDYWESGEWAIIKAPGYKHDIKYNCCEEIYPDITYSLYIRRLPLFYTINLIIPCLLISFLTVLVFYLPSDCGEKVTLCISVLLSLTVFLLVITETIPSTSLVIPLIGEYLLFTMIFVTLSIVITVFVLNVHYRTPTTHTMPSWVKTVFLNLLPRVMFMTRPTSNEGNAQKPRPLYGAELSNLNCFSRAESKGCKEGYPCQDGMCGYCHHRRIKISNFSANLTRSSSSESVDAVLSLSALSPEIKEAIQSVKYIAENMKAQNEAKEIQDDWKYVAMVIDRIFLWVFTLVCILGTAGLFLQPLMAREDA
Sequence of α3β4 nAChR (P30926 22-498): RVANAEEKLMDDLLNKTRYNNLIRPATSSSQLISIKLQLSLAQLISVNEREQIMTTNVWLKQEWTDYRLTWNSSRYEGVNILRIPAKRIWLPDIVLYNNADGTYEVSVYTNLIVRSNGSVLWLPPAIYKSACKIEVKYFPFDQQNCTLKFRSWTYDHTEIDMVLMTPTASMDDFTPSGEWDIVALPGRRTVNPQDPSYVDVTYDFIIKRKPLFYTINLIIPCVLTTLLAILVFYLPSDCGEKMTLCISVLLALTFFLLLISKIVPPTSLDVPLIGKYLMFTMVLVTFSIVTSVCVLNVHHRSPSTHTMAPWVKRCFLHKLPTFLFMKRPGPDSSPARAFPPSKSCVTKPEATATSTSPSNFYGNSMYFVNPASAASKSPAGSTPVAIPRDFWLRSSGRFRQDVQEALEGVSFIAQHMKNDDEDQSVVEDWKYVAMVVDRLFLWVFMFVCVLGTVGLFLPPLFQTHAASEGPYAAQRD

| Compound | Ki (human α7 nAChR) [nM] | Ki (α3β4 nAChR) [nM] | Ki (α4β2 nAChR; Table 2, read-out: Ki α4β2) [nM] | also measured |
| --- | --- | --- | --- | --- |
| c1ccc(-c2ccc(O[C@H]3C4CCN(CC4)[C@@H]3Cc3cccnc3)nn2)cc1 (relative stereo) [Compound 19, trans-3-(6-Phenylpyridazin-3-yl)oxy-2-(3-pyridylmethyl) quinuclidine] | 100 |  |  |  |
| c1cncc(C[C@@H]2[C@@H](Oc3ccc4ccccc4n3)C3CCN2CC3)c1 (relative stereo) [Compound 18, trans-2-[2-(3-Pyridylmethyl)quinuclidin-3-yl]oxyquinoline] | 2920 |  |  |  |
| c1cncc(C[C@@H]2[C@H](Oc3ccc(-c4ccc5[nH]ccc5c4)nn3)C3CCN2CC3)c1 (relative stereo) [Compound 7, cis-5-[6-[2-(3-Pyridylmethyl)quinuclidin-3-yl]oxypyridazin-3-yl]-1H-indole] | 59 | 200 |  | nAChR subtype preference / selectivity (human α7 nAChR): preferably binds to the α4β2 nAChR |
| c1cncc(C[C@@H]2[C@@H](Oc3ccc(-c4ccc5[nH]ccc5c4)nn3)C3CCN2CC3)c1 [Compound 11, trans-5-[6-[2-(3-Pyridylmethyl)quinuclidin-3-yl]oxypyridazin-3-yl]-1H-indole] | 1 |  |  |  |
| c1ccc(-c2nnc(O[C@H]3C4CCN(CC4)[C@@H]3Cc3cccnc3)s2)cc1 (racemic) [Compound 20, trans-2-Phenyl-5-[2-(3-pyridylmethyl)quinuclidin-3-yl]oxy-1,3,4-thiadiazole] | 320 |  |  |  |
| c1cncc(C[C@@H]2[C@@H](Oc3cnc(-c4ccc5[nH]ccc5c4)cn3)C3CCN2CC3)c1 (racemic) [Compound 9, trans-5-[5-[2-(3-Pyridylmethyl)quinuclidin-3-yl]oxypyrazin-2-yl]-1H-indole] | 240 |  |  |  |
| Nc1nc2ccc(-c3ccc(OC4C5CCN(CC5)C4Cc4cccnc4)nn3)cc2s1 (stereo not drawn) [Compound 12, trans-6-[6-[2-(3-Pyridylmethyl)quinuclidin-3-yl]oxypyridazin-3-yl]-1,3-benzothiazol-2-amine] |  | 1080 | 50 | Ki (human α7 nAChR; [3]): 19 nM; Ki (human α7 nAChR; Table 2, read-out: Ki α7): 18.8 nM |
| c1cncc(C[C@@H]2[C@@H](Oc3ccc(-c4ccc5[nH]ccc5c4)nn3)C3CCN2CC3)c1 [2R,3S-11, (2R,3S)-5-[6-[2-(3-Pyridylmethyl)quinuclidin-3-yl]oxypyridazin-3-yl]-1H-indole] |  | 1210 | 730 | Ki (human α7 nAChR; Table 2, read-out: Ki α7): 34 nM |
| c1cncc(C[C@@H]2[C@@H](Oc3nnc(-c4ccc5[nH]ccc5c4)s3)C3CCN2CC3)c1 [Compound 16, trans-2-(1H-Indol-5-yl)-5-[2-(3-pyridylmethyl)quinuclidin-3-yl]oxy-1,3,4-thiadiazole] |  |  |  | Ki (human α7 nAChR; [3]): 11 nM; citric acid-induced cough counts compared with air control ([1]; dry powder insufflated, 1 mg/kg, p=0.0004): significantly reduced; citric acid-induced cough counts compared with air control ([1]; dry powder insufflated, 2 mg/kg, p=0.0042): significantly reduced; citric acid-induced cough counts compared with air control ([1]; nebulised, 0.4 mg/kg, 58 min exposure, p=0.0023): significantly reduced; citric acid-induced cough counts compared with air control ([1]; orally administered, 9.5 mg/kg, p<0.05): significantly reduced; cough frequency compared to negative control (saline) ([1]; prophylactic intraperitoneal treatment at 1, 3 and 9.5 mg/kg, FIG. 8): suppression of cough frequency; number of coughs (citric acid-induced cough counts) ([2]; i.p. 1 mg/kg, p<0.0001 vs saline control (17 coughs)): 5; cough incubation period ([2]; i.p. 1 mg/kg, p<0.001 vs saline control (206 sec)): 548 s; number of coughs (citric acid-induced cough counts) ([2]; i.p. 3 mg/kg, p<0.001 vs saline control (17 coughs)): 5; cough incubation period ([2]; i.p. 3 mg/kg, p<0.01 vs saline control (206 sec)): 455 s; number of coughs (citric acid-induced cough counts) ([2]; i.p. 9.5 mg/kg, p<0.01 vs saline control (17 coughs)): 7; cough incubation period ([2]; i.p. 9.5 mg/kg, p<0.05 vs saline control (206 sec)): 489 s |
| c1cncc(C[C@@H]2[C@@H](Oc3nnc(-c4ccc5[nH]ccc5c4)s3)C3CCN2CC3)c1 (racemic) [Compound 16, trans-2-(1H-Indol-5-yl)-5-[2-(3-pyridylmethyl)quinuclidin-3-yl]oxy-1,3,4-thiadiazole] |  | 440 | 220 |  |
| c1ccc(-c2nnc(O[C@H]3C4CCN(CC4)[C@@H]3Cc3cccnc3)s2)cc1 (relative stereo) [Compound 20, trans-2-Phenyl-5-[2-(3-pyridylmethyl)quinuclidin-3-yl]oxy-1,3,4-thiadiazole] | 320 |  |  |  |
| c1cncc(C[C@H]2[C@H](Oc3ccc(-c4ccc5[nH]ccc5c4)nn3)C3CCN2CC3)c1 [2S,3R-11, (2S,3R)-5-[6-[2-(3-Pyridylmethyl)quinuclidin-3-yl]oxypyridazin-3-yl]-1H-indole] |  | 780 | 77 | Ki (human α7 nAChR; Table 2, read-out: Ki α7): 1 nM; nAChR subtype preference / selectivity (human α7 nAChR): optimal and selective interaction with α7 nAChR |
| c1cncc(C[C@@H]2[C@@H](Oc3ccc(-c4ccc5[nH]ccc5c4)nn3)C3CCN2CC3)c1 (racemic) [Compound 11, trans-5-[6-[2-(3-Pyridylmethyl)quinuclidin-3-yl]oxypyridazin-3-yl]-1H-indole] | 1.4 |  |  | Ki (α4β2 nAChR): 73 nM |
| c1cncc(C[C@@H]2[C@@H](Oc3ccc(-c4ccc5[nH]ccc5c4)cn3)C3CCN2CC3)c1 [Compound 5, trans-5-[6-[2-(3-Pyridylmethyl)quinuclidin-3-yl]oxy-3-pyridyl]-1H-indole] | 58 |  |  |  |
| c1cncc(C[C@@H]2[C@@H](Oc3cnc(-c4ccc5[nH]ccc5c4)cn3)C3CCN2CC3)c1 (relative stereo) [Compound 9, trans-5-[5-[2-(3-Pyridylmethyl)quinuclidin-3-yl]oxypyrazin-2-yl]-1H-indole] |  | 400 | 230 |  |
